Laboratory results: patent publication US20210290648A1, “Potentiation of B-Lactam Antibiotics and B-Lactam/B-Lactamase Inhibitor Combinations Against Multidrug and Extensively Drug-Resistant Pseudomonas Aeruginosa Using Non-Ribosomal Tobramycin-Cyclam Conjugates” (University of Manitoba, priority 2018, published 2021)

Experiments:
Assay type in all cases: cell-based, Pseudomonas aeruginosa
WT P. aeruginosa PAO1 = assay: Checkerboard combination study / MIC; settings: for MIC of antibiotic + Compound 2 in PAO1 / fold change of MIC + Compound 2 in PAO1: + compound 2 ≤8.7 μM; for MIC: Pseudomonas aeruginosa, PAO1, 18 h, WT PAO1 (Table 2), read-out: MIC alone; for MIC / MIC of antibiotic alone in PAO1: antibiotic alone; for FICI in the presence of ≤10 μM of 1: antibiotic + compound 1; for FICI in the presence of ≤10 μM of 1 / MIC of Antibiotics in the presence of ≤10 μM of 1 / FICI in the presence of ≤10 μM of 2 / MIC of Antibiotics in the presence of ≤10 μM of 2 / FICI in the presence of ≤10 μM of 3 / MIC of Antibiotics in the presence of ≤10 μM of 3: WT PAO1; for MIC of Antibiotics in the presence of ≤10 μM of 1: antibiotic + compound 1 ≤10 μM; for FICI in the presence of ≤10 μM of 2: antibiotic + compound 2; for MIC of Antibiotics in the presence of ≤10 μM of 2: antibiotic + compound 2 ≤10 μM; for FICI in the presence of ≤10 μM of 3: antibiotic + compound 3; for MIC of Antibiotics in the presence of ≤10 μM of 3: antibiotic + compound 3 ≤10 μM; for MIC of antibiotic alone in PAO1: PAO1 wild-type (Table 4)
PA 100036 = assay: Checkerboard combination study / MIC; settings: for MICCombination (antibiotic): MIC of antibiotic combined with compound 2; for FICI: antibiotic + compound 2; for MICAntibiotic: antibiotic alone; for FICAntibiotic: with compound 2
PA 101885 = assay: Checkerboard combination study / MIC; settings: for MICCombination (antibiotic): MIC of antibiotic combined with compound 2; for FICI: antibiotic + compound 2; for MICAntibiotic: antibiotic alone; for FICAntibiotic: with compound 2
PA 259 = assay: Checkerboard combination study / MIC; settings: for MICAntibiotic: antibiotic alone
PA 260 = assay: Checkerboard combination study / MIC; settings: for MICCombination (antibiotic): MIC of antibiotic combined with compound 2; for FICI: antibiotic + compound 2; for MICAntibiotic: antibiotic alone; for FICAntibiotic: with compound 2
PA 262 = assay: Checkerboard combination study / MIC; settings: for MICCombination (antibiotic): MIC of antibiotic combined with compound 2; for FICI: antibiotic + compound 2; for MICAntibiotic: antibiotic alone; for FICAntibiotic: with compound 2
PA 264 = assay: Checkerboard combination study / MIC; settings: for MICCombination (antibiotic): MIC of antibiotic combined with compound 2; for FICI: antibiotic + compound 2; for MICAntibiotic: antibiotic alone; for FICAntibiotic: with compound 2
PA 101243 = assay: Checkerboard combination study / MIC; settings: PA 101243; for MICCombination (antibiotic): MIC of antibiotic combined with compound 2; for FICI: antibiotic + compound 2; for MICAntibiotic: antibiotic alone; for FICAntibiotic: with compound 2
PA 114228 = assay: Checkerboard combination study / MIC; settings: for MICCombination (antibiotic): MIC of antibiotic combined with compound 2; for FICI: antibiotic + compound 2; for MICAntibiotic: antibiotic alone; for FICAntibiotic: with compound 2
PAO200 = settings: for MIC of antibiotic + Compound 2 in PAO200 / fold change of MIC + Compound 2 in PAO200: + compound 2 ≤8.7 μM; for MIC of antibiotic alone in PAO200: PAO200 efflux-deficient
From the text: (§1) PAO200 is a tnexA-rnexB-oprM deletion strain while PAO750 lacks five important RND pumps (McxAB-OprM, MexCD-OprJ, MexEF-OprN, Mex JK, and MexXY) and the outer membrane protein OpmH (46, 47). Some of these pumps are homologues of broad substrate specificities that extrude different classes of antimicrobial agents and confer resistance on P. aeruginosa (48).
(§2) Antimicrobial Susceptibility Assay. The in vitro antimicrobial activity of all compounds/antibiotics against a panel of bacteria was evaluated by microbroth dilution method in accordance with the Clinical and Laboratory Standards Institute (CLSI) guidelines. Overnight grown bacterial cultures were diluted in saline to achieve a 0.5 McFarland turbidity, followed by 1:50 dilution in Mueller-Hinton broth (MHB) for inoculation to a final concentration of approximately 5×10^5CFU/mL. The antimicrobial agents were 2-fold serially diluted in MHB in a 96-well plate and incubated at 37° C. with equal volumes of inoculum for 18 h. The lowest concentration that prevented the visible growth of bacteria was defined as the MIC for each antimicrobial agent. The broth with or without bacterial cells was used as positive or negative control, respectively.
(§3) Checkerboard Assay. Combination studies with different antibiotics were performed in 96-well plates as previously described (22). Briefly, the antibiotic of interest was serially diluted in MHB along the abscissa while the adjuvant (newly synthesized conjugates) was serially diluted in MHB along the ordinate. This creates a 10×7 matrix wherein each well consists of a combination of different antibiotic and adjuvant concentrations. Overnight grown bacterial cultures were diluted in saline to achieve a 0.5 McFarland turbidity, followed by 1:50 dilution in Mueller-Hinton broth (MHB) for inoculation to a final concentration of approximately 5×10^5CFU/mL. Equal volume of this bacterial culture was then added to each well and incubated at 37° C. for 18 h. After incubation, the plates were read on EMax® Plus microplate reader (Molecular Devices, Sunnyvale, Calif., USA) at 590 nm. MIC was recorded as wells with the lowest concentration of drugs with no bacterial growth. The fractional inhibitory concentration (FIC) for each antibiotic was calculated by dividing the MIC of the antibiotic in the presence of adjuvant by the MIC of the antibiotic alone. Similarly, the FIC of adjuvant was calculated by dividing the MIC of the adjuvant in the presence of antibiotic by the MIC of the adjuvant alone. FIC index is the sum of both FICs. FIC indices of <0.5 were deemed synergistic; 0.5-4, no interaction; and >4, antagonistic.

PAO750 = settings: for MIC of antibiotic + Compound 2 in PAO750 / fold change of MIC + Compound 2 in PAO750: + compound 2 ≤8.7 μM; for MIC of antibiotic alone in PAO750: PAO750 efflux-deficient
From the text: as §1, §2, §3

[1] = system: MDR/XDR P. aeruginosa clinical isolates; assay: MIC and checkerboard, panel of clinical isolates; settings: antibiotic + compound 2 (8.7 μM); resistant P. aeruginosa isolates
PA 91433 = assay: Checkerboard combination study / MIC; settings: PA 91433
[2] = MIC of antibiotic combined with compound 2

SMILES: CCN1CCN(C(=O)N[C@@H](C(=O)N[C@@H]2C(=O)N3[C@@H]2SC(C)(C)[C@@H]3C(=O)O)c2ccccc2)C(=O)C1=O [Piperacillin]
- MIC of antibiotic + Compound 2 in PAO1 (WT P. aeruginosa PAO1): 2 µg/mL
- fold change of MIC + Compound 2 in PAO1 (WT P. aeruginosa PAO1): 4
- MIC (WT P. aeruginosa PAO1): 8 µg/mL
- FICI in the presence of ≤10 μM of 1 (WT P. aeruginosa PAO1): 0.26
- MIC of Antibiotics in the presence of ≤10 μM of 1 (WT P. aeruginosa PAO1): 2 µg/mL
- FICI in the presence of ≤10 μM of 2 (WT P. aeruginosa PAO1): 0.25
- MIC of Antibiotics in the presence of ≤10 μM of 2 (WT P. aeruginosa PAO1): 2 µg/mL
- FICI in the presence of ≤10 μM of 3 (WT P. aeruginosa PAO1): 0.25
- MIC of Antibiotics in the presence of ≤10 μM of 3 (WT P. aeruginosa PAO1): 2 µg/mL
- MIC of antibiotic alone in PAO1 (WT P. aeruginosa PAO1): 8 µg/mL
- MICCombination (antibiotic) (PA 100036): 64 µg/mL
- FICI (PA 100036): <1.06
- MICAntibiotic (PA 100036): 64 µg/mL
- FICAntibiotic (PA 100036): 1.000
- MICCombination (antibiotic) (PA 101885): 4 µg/mL
- FICI (PA 101885): <0.31
- MICAntibiotic (PA 101885): 16 µg/mL
- FICAntibiotic (PA 101885): 0.250
- MICCombination (antibiotic) (PA 259; [2]): 256 µg/mL
- FICI (PA 259; antibiotic + compound 2): <0.50
- MICAntibiotic (PA 259): 512 µg/mL
- FICAntibiotic (PA 259; with compound 2): 0.500
- MICCombination (antibiotic) (PA 260): 512 µg/mL
- FICI (PA 260): <1.06
- MICAntibiotic (PA 260): 512 µg/mL
- FICAntibiotic (PA 260): 1.000
- MICCombination (antibiotic) (PA 262): 512 µg/mL
- FICI (PA 262): <0.52
- MICAntibiotic (PA 262): 1024 µg/mL
- FICAntibiotic (PA 262): 0.500
- MICCombination (antibiotic) (PA 264): 1024 µg/mL
- FICI (PA 264): <0.52
- MICAntibiotic (PA 264): 2048 µg/mL
- FICAntibiotic (PA 264): 0.500
- MICCombination (antibiotic) (PA 101243): 128 µg/mL
- FICI (PA 101243): <1.06
- MICAntibiotic (PA 101243): 128 µg/mL
- FICAntibiotic (PA 101243): 1.000
- MICCombination (antibiotic) (PA 114228): 8 µg/mL
- FICI (PA 114228): <0.50
- MICAntibiotic (PA 114228): 16 µg/mL
- FICAntibiotic (PA 114228): 0.500
- MIC of antibiotic + Compound 2 in PAO200 (PAO200): 1 (1) μg/ml
- fold change of MIC + Compound 2 in PAO200 (PAO200): 1 (1)
- MIC of antibiotic alone in PAO200 (PAO200): 1 µg/mL
- MIC of antibiotic + Compound 2 in PAO750 (PAO750): 0.5 µg/mL
- fold change of MIC + Compound 2 in PAO750 (PAO750): 4
- MIC of antibiotic alone in PAO750 (PAO750): 2 µg/mL
- resistant isolates reaching CLSI clinical breakpoint [1]: zero out of six

SMILES: C[C@@H](O)[C@H]1C(=O)N2C(C(=O)O)=C(S[C@@H]3CN[C@H](CNS(N)(=O)=O)C3)[C@H](C)[C@H]12 [Doripenem]
- MIC of antibiotic + Compound 2 in PAO1 (WT P. aeruginosa PAO1): 0.5 µg/mL
- fold change of MIC + Compound 2 in PAO1 (WT P. aeruginosa PAO1): 2
- MIC (WT P. aeruginosa PAO1): 1 µg/mL
- FICI in the presence of ≤10 μM of 1 (WT P. aeruginosa PAO1): 0.51
- MIC of Antibiotics in the presence of ≤10 μM of 1 (WT P. aeruginosa PAO1): 0.5 µg/mL
- FICI in the presence of ≤10 μM of 2 (WT P. aeruginosa PAO1): 0.50
- MIC of Antibiotics in the presence of ≤10 μM of 2 (WT P. aeruginosa PAO1): 0.5 µg/mL
- FICI in the presence of ≤10 μM of 3 (WT P. aeruginosa PAO1): 0.50
- MIC of Antibiotics in the presence of ≤10 μM of 3 (WT P. aeruginosa PAO1): 0.5 µg/mL
- MIC of antibiotic alone in PAO1 (WT P. aeruginosa PAO1): 1 µg/mL
- MICCombination (antibiotic) (PA 100036): 8 µg/mL
- FICI (PA 100036): <0.56
- MICAntibiotic (PA 100036): 16 µg/mL
- FICAntibiotic (PA 100036): 0.500
- MICCombination (antibiotic) (PA 101885): 1 µg/mL
- FICI (PA 101885): <0.27
- MICAntibiotic (PA 101885): 4 µg/mL
- FICAntibiotic (PA 101885): 0.250
- MICAntibiotic (PA 259): >1024 µg/mL
- MICCombination (antibiotic) (PA 260): 8 µg/mL
- FICI (PA 260): <0.53
- MICAntibiotic (PA 260): 16 µg/mL
- FICAntibiotic (PA 260): 0.500
- MICCombination (antibiotic) (PA 262): 4 µg/mL
- FICI (PA 262): <0.31
- MICAntibiotic (PA 262): 16 µg/mL
- FICAntibiotic (PA 262): 0.250
- MICCombination (antibiotic) (PA 264): 8 µg/mL
- FICI (PA 264): <0.51
- MICAntibiotic (PA 264): 16 µg/mL
- FICAntibiotic (PA 264): 0.500
- MICCombination (antibiotic) (PA 91433; [2]): 1 µg/mL
- FICI (PA 91433; antibiotic + compound 2): <0.09
- MICAntibiotic (PA 91433; antibiotic alone): 16 µg/mL
- FICAntibiotic (PA 91433; with compound 2): 0.063
- MICCombination (antibiotic) (PA 101243): 8 µg/mL
- FICI (PA 101243): <0.50
- MICAntibiotic (PA 101243): 16 µg/mL
- FICAntibiotic (PA 101243): 0.500
- MICCombination (antibiotic) (PA 114228): 1 µg/mL
- FICI (PA 114228): <0.14
- MICAntibiotic (PA 114228): 8 µg/mL
- FICAntibiotic (PA 114228): 0.125
- MIC of antibiotic + Compound 2 in PAO200 (PAO200): 0.25 µg/mL
- fold change of MIC + Compound 2 in PAO200 (PAO200): 4
- MIC of antibiotic alone in PAO200 (PAO200): 1 µg/mL
- MIC of antibiotic + Compound 2 in PAO750 (PAO750): 0.25 µg/mL
- fold change of MIC + Compound 2 in PAO750 (PAO750): 4
- MIC of antibiotic alone in PAO750 (PAO750): 1 µg/mL
- resistant isolates reaching CLSI clinical breakpoint [1]: three out of nine
